Test results published in patent publication US11692194B2, “Modulating expression of polypeptides via new gene switch expression systems” (Precigen, Inc., priority 2017, dated 2023).
Entries after “also recorded” stand apart in the source; their conditions may differ.

Assays:
Format in all cases: cell-based
[1] = system: RTS-IL-12 in EGFRvIII-CAR-T cells; experiment: IL-12 induction in EGFRvIII-CAR/RTS-IL-12 T cells, ELISA of culture supernatant
From the text: Sleeping Beauty transposons were designed as depicted in FIG. 22 to stably express EGFRvIII-specific CAR, a cell tag and RTS-IL-12. Transposon plasmids were electroporated in several donor T cells as previously described. EGFRvIII-CAR-T cells were selectively expanded ex vivo by successive rounds of stimulations every 7-10 days for up to 4 cycles with either γ-irradiated or mitomycin C treated AaPC that served as “feeder cells” at 1:1 ratio in media supplemented with IL-2 and IL-21. The AaPC cells used were K562-AaPC expressing EGFRvIII antigen. FIG. 26 depicts CAR expression in T cells from multiple donors as the CAR+ T cells are selectively expanded ex vivo.
To assay IL-12 induction in EGFRvIII-CAR-T cells, Pan T-cells at 24 h post nucleofection were treated with DMSO (control) or veledemix in the presence of AaPCs in media containing IL-21. After 48 hours post-nucleofection, culture supernatants were analyzed for IL-12 levels by ELISA.
Furthermore, the ability of RTS-IL-12/CAR-T cells to produce inducible IL-12 was assessed in presence or absence of antigen specific stimulation. EGFRvIII-CAR/RTS-IL-12 T cells were expanded ex vivo by three successive rounds of stimulation with EGFRvIII^+ AaPCs. […]

[2] = system: RTS-IL-12 in EGFRvIII-CAR T cells; experiment: Veledimex dose-response of IL-12, ELISA
Protocol: EGFRvIII-CAR T cells with or without RTS-IL-12 were expanded ex vi by three successive rounds of stimulation with EGFRvIII^+ AaPCs. T cells were then treated with varying doses of veledimex from 0 nM (DMSO control) to 100 nM. At 48 h post veledimex treatment, culture supernatants were harvested analyzed for IL-12 levels by ELISA. EGFRvIII-CAR expression in all groups was confirmed with flow cytometry and was stable with increasing doses of veledimex (data not shown) as expected with CAR expression under control of a constitutive promoter.

[3] = system: RTS:mbIL15 in CAR T cells; experiment: Serine recombinase (SF370) integrated single vector CAR:HER1t+RTS:mbIL15, flow cytometry of mbIL15
Protocol: Various DNA plasmids containing serine recombinase attachment sites and components of the gene switch system as depicted in FIG. 17 were transfected to peripheral blood mononuclear cells (PBMC) via nucleofection to redirect T cell specificity. Specifically, 3 single vectors were tested in the presence and absence of a serine recombinase, SF370:
(i) CAR:HER1t+constitutive mbIL15 (positive control)
(ii) CAR:HER1t+promoterless mbIL15 (negative control)
(iii) CAR:HER1t+RTS:mbIL15
The expression of the CAR and mbIL15 was evaluated weekly (at days 1, day 8, day 15 and day 22). Aliquots of cells were treated with either DMSO or veledimex 24-48 h prior to each flow to assess inducible mbIL15 expression. AaPC Clone 1 was added weekly at a 1:1 ratio with CAR+ cells.

[4] = system: inducible IL-12 constructs (XON-61 or XON-62) in EGFRvIII-CAR-T cells; experiment: Veledimex ON-OFF cycling of IL-12 in EGFRvIII-CAR-T cells
Protocol: For each ON-OFF cycle, veledimex was first added (ON) at previously mentioned concentrations (typically between 20-100 nM) to cell cultures for 2-3 days. An aliquot of cells was harvested and analyzed for expression (ON) of various proteins by flow cytometry and/or ELISA at noted time points. Remaining cell culture was then washed and resuspended in complete medium without veledimex (OFF) and cultured for up to 5 days. Aliquots of cells were harvested and analyzed for expression (OFF) at times mentioned by flow cytometry and/or ELISA as noted above. Veledimex ON-OFF cycle(s) can be repeated again with remaining cell culture by repeating the process.
The effect of repeated treatments and withdrawals of veledimex to EGFRvIII-CAR-T cells harboring an inducible IL-12 gene was determined in vitro both in the presence and absence of antigen specific T cell activation by co-culture with AaPCs. In the first cycle (ON-OFF) of ligand treatment, CAR-T cells (10^6/ml) expanded ex vivo by four successive rounds of stimulation with EGFRvIII^+ AaPCs were treated with DMSO or veledimex and cultured in the presence or absence of AaPCs in media containing IL-21 and IL-2. After 48 hours post-treatment, cells were washed thoroughly to remove ligand and cultured in a new culture vessel in media containing IL-21 and IL-2 for 5 days. Culture supernatants harvested between 24-120 hours post-treatment were then analyzed for expression of IL-12 and IFNγ.
In the second cycle (ON-OFF) of ligand treatment, CAR-T cells from cultures treated with DMSO or veledimex in the presence of AaPCs in cycle 1 were collected at 5 days after withdrawal of veledimex (in cycle 1) and subjected to a second cycle of ligand treatment with DMSO or veledimex in the presence or absence of antigen specific T cell activation by co-culture with AaPCs. After 48 hours post-treatment, cells were washed thoroughly to remove ligand and cultured in a new culture vessel in media containing IL-21 plus IL-2 for 5 days. Culture supernatants harvested between 24-120 hours post-treatment were then analyzed for expression of IL-12 and IFNγ.

With CCC[C@@H](N(NC(=O)c1cccc(OC)c1CC)C(=O)c1cc(C)cc(C)c1)C(C)(C)C [veledimex, N-[(1R)-1-(1,1-dimethylethyl)butyl]-N′-(2-ethyl-3-methoxybenzoyl)-3,5-dimethylbenzohydrazide] the “veledimex induced IL-12 with versus without EGFRvIII^+ AaPCs” value ([1]; 100 nM veledimex, 48 hours, after three rounds of stimulation) was “greatly enhanced in presence of EGFRvIII antigen specific stimulation”, the “IL-12 expression in culture supernatant” value ([1]; T cells co-expressing CAR and RTS-IL-12, treated 24 h post nucleofection with AaPCs and IL-21) was “induced IL-12 expression” and the “IL-12 production versus veledimex dose” value ([2]; 0 nM to 100 nM, 48 h post treatment) was “dose dependent”. The “EGFRvIII-CAR expression with increasing doses of veledimex” value ([2]; flow cytometry, data not shown) was “stable”, the “mbIL15 expression after removal of veledimex” value ([3]; day 22) was “complete loss of mbIL15 expression” and the “mbIL-15 expression on veledimex treatment” value ([3]; two weeks post-transfection, ~48 h treatment) was “induction of mbIL-15 expression”. The “IL-12 induction in cycle 2 after veledimex versus DMSO in cycle 1” value ([4]; 48 h post-ligand treatment in cycle 2, with EGFRvIII^+ AaPCs) was “increased IL-12 induction”, the “IL-12 expression relative to DMSO” value ([4]; cycle 1, culture supernatants at 48 h post-treatment) was “increase in IL-12 expression” and the “levels of IL-12 induction with versus without antigen-specific stimulation” value ([4]; cycle 1, presence vs absence of AaPCs) was “enhanced in the presence of AaPC-mediated antigen-specific stimulation; also recorded: significantly lower in the absence of antigen-specific stimulation”. The “control of IL-12 expression over two cycles of ligand treatment” value ([4]; prolonged culture, repeated addition and withdrawal) was “can be turned ON and OFF repeatedly; also recorded: can regulate IL-12 expression” and the “IL-12 expression after withdrawal of veledimex” value ([4]; withdrawal at 48 h post-treatment, presence and absence of AaPCs) was “reduction of IL-12 expression; also recorded: gradually reduced back to the baseline levels; also recorded: went down to baseline levels”.
